Experimental data as given in article PMC8389614, “A Comparison of Acute Pharmacological Effects of Methylone and MDMA Administration in Humans and Oral Fluid Concentrations as Biomarkers of Exposure” (Biology, 2021).

Test: Oral fluid to blood (OF/B) concentration ratio and plasma concentration
Settings: human

Work on `CNC(C)C(=O)c1ccc(C)cc1` (stereo not shown) [mephedrone, 4-methylmethcathinone] yielded a Kp (oral, 200 mg) of 22.3, a Kp (po, 100 mg) of 49.4 and a Kp (po, 150 mg) of 4.28. It also gave a Kp (po, 200 mg) of 11.7.
